Results published in US12365696B2, “Small-molecule focal adhesion kinase (FAK) inhibitors” (DANA-FARBER CANCER INSTITUTE, INC., priority 2019, dated 2025).

Columns and labels:
Experiment in all cases: KINOMEscan
Format in all cases: binding
[1] = molecular target: ABL1(F317L)-phosphorylated (Homo sapiens (Human), UniProt P00519, F317L); conditions: 10000 nM, read-out: Percent Control
[2] = molecular target: ABL1(Y253F)-phosphorylated (Homo sapiens (Human), UniProt P00519, Y253F); conditions: 10000 nM, read-out: Percent Control
CDK4-cyclinD1 = CDK4-cyclinD1 (Homo sapiens (Human), UniProt P11802); conditions: CDK4-cyclinD1, 10000 nM; read-out: Percent Control
CDK8 = CDK8 (Homo sapiens (Human), UniProt P49336); conditions: CDK8, 10000 nM; read-out: Percent Control
CDKL3 = CDKL3 (Homo sapiens (Human), UniProt Q8IVW4); conditions: CDKL3, 10000 nM; read-out: Percent Control
CSNK2A2 = CSNK2A2 (Homo sapiens (Human), UniProt P19784); conditions: CSNK2A2, 10000 nM; read-out: Percent Control
DAPK1 = DAPK1 (Homo sapiens (Human), UniProt P53355); conditions: DAPK1, 10000 nM; read-out: Percent Control
DCAMKL2 = DCAMKL2 (Homo sapiens (Human), UniProt Q8N568); conditions: DCAMKL2, 10000 nM; read-out: Percent Control
EPHA2 = EPHA2 (Homo sapiens (Human), UniProt P29317); conditions: EPHA2, 10000 nM; read-out: Percent Control
ERBB4 = ERBB4 (Homo sapiens (Human), UniProt Q15303); conditions: ERBB4, 10000 nM; read-out: Percent Control
ERK1 = ERK1 (Homo sapiens (Human), UniProt P27361); conditions: ERK1, 10000 nM; read-out: Percent Control
FGFR1 = FGFR1 (Homo sapiens (Human), UniProt P11362); conditions: FGFR1, 10000 nM; read-out: Percent Control
FLT3(R834Q) = FLT3(R834Q) (Homo sapiens (Human), UniProt P36888, R834Q); conditions: 10000 nM, read-out: Percent Control
IRAK4 = IRAK4 (Homo sapiens (Human), UniProt Q9NWZ3); conditions: IRAK4, 10000 nM; read-out: Percent Control
LCK = LCK (Homo sapiens (Human), UniProt P06239); conditions: 10000 nM, read-out: Percent Control
MAPKAPK2 = MAPKAPK2 (Homo sapiens (Human), UniProt P49137); conditions: MAPKAPK2, 10000 nM; read-out: Percent Control
MARK2 = MARK2 (Homo sapiens (Human), UniProt Q7KZI7); conditions: MARK2, 10000 nM; read-out: Percent Control
MEK1 = MEK1 (Homo sapiens (Human), UniProt Q02750); conditions: MEK1, 10000 nM; read-out: Percent Control
MEK2 = MEK2 (Homo sapiens (Human), UniProt P36507); conditions: MEK2, 10000 nM; read-out: Percent Control
MERTK = MERTK (Homo sapiens (Human), UniProt Q12866); conditions: 10000 nM, read-out: Percent Control
MST2 = MST2 (Homo sapiens (Human), UniProt Q13188); conditions: MST2, 10000 nM; read-out: Percent Control
NEK6 = NEK6 (Homo sapiens (Human), UniProt Q9HC98); conditions: NEK6, 10000 nM; read-out: Percent Control
p38-beta = p38-beta (Homo sapiens (Human), UniProt Q15759); conditions: 10000 nM, read-out: Percent Control
PAK1 = PAK1 (Homo sapiens (Human), UniProt Q13153); conditions: PAK1, 10000 nM; read-out: Percent Control
PIK3CD = PIK3CD (Homo sapiens (Human), UniProt O00329); conditions: 10000 nM, read-out: Percent Control
RIOK2 = RIOK2 (Homo sapiens (Human), UniProt Q9BVS4); conditions: RIOK2, 10000 nM; read-out: Percent Control
[3] = molecular target: RSK2(Kin.Dom.1-N-terminal) (Homo sapiens (Human), UniProt P51812); conditions: 10000 nM, read-out: Percent Control
SRPK3 = SRPK3 (Homo sapiens (Human), UniProt Q9UPE1); conditions: SRPK3, 10000 nM; read-out: Percent Control
STK36 = STK36 (Homo sapiens (Human), UniProt Q9NRP7); conditions: STK36, 10000 nM; read-out: Percent Control
TESK1 = TESK1 (Homo sapiens (Human), UniProt Q15569); conditions: TESK1, 10000 nM; read-out: Percent Control
TRKC = TRKC (Homo sapiens (Human), UniProt Q16288); conditions: 10000 nM, read-out: Percent Control
WEE1 = WEE1 (Homo sapiens (Human), UniProt P30291); conditions: WEE1, 10000 nM; read-out: Percent Control
YANK3 = YANK3 (Homo sapiens (Human), UniProt Q86UX6); conditions: YANK3, 10000 nM; read-out: Percent Control
YANK3, sequence (Q86UX6 whole entry): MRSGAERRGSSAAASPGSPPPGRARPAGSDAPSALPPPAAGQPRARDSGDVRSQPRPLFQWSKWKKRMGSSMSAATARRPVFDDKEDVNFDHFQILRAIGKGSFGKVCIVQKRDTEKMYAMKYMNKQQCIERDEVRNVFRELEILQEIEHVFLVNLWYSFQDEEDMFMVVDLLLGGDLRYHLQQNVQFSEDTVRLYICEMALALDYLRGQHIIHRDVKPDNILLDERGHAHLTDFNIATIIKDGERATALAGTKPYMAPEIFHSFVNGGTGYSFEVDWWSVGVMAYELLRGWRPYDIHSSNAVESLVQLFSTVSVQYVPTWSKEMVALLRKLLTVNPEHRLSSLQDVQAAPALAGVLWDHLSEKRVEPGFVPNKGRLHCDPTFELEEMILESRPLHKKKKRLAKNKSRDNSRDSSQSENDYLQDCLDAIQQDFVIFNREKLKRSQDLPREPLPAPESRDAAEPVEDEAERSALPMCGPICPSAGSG

MST2, sequence (Q13188 whole entry): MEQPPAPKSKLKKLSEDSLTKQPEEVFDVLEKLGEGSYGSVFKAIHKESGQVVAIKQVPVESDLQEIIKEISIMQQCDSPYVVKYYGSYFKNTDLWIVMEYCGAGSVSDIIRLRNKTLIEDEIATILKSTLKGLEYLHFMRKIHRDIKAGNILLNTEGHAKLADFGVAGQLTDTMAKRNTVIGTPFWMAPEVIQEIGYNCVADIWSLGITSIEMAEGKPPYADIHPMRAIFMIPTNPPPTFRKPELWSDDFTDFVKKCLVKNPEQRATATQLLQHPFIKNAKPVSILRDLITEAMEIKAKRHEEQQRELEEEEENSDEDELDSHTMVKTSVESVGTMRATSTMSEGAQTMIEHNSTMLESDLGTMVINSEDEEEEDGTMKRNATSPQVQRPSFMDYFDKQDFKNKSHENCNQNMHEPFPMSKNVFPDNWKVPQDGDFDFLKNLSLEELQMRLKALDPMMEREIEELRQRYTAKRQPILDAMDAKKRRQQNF
RSK2(Kin.Dom.1-N-terminal), sequence (P51812 68-327): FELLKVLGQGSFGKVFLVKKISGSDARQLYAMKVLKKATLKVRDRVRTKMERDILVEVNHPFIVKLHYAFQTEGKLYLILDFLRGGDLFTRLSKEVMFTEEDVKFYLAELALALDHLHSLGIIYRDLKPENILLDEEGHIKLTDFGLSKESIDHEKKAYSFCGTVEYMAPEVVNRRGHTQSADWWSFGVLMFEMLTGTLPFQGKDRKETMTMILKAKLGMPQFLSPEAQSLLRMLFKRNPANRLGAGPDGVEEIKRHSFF
RIOK2, sequence (Q9BVS4 whole entry): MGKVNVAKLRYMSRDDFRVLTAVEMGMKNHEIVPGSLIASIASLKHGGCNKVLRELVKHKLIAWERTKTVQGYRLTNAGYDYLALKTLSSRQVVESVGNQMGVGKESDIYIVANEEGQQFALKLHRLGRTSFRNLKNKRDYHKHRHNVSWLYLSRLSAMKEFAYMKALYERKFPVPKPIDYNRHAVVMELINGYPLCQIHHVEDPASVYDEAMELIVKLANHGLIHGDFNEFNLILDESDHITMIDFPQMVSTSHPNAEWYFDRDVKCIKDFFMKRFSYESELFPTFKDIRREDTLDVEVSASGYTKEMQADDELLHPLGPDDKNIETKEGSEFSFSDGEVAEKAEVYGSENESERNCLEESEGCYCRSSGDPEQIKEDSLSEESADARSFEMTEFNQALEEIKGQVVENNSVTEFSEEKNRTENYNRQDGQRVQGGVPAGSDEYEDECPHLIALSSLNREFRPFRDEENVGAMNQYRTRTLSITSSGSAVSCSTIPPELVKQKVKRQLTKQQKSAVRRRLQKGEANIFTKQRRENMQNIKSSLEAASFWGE
NEK6, sequence (Q9HC98 whole entry): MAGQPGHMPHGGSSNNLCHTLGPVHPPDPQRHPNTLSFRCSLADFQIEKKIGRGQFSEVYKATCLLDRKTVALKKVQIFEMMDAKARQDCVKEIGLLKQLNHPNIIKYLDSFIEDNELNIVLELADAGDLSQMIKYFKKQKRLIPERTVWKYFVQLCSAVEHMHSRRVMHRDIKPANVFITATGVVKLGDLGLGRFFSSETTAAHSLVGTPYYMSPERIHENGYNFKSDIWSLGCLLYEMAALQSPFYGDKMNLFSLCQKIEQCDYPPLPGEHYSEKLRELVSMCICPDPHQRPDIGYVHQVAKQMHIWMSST
EPHA2, sequence (P29317 24-976): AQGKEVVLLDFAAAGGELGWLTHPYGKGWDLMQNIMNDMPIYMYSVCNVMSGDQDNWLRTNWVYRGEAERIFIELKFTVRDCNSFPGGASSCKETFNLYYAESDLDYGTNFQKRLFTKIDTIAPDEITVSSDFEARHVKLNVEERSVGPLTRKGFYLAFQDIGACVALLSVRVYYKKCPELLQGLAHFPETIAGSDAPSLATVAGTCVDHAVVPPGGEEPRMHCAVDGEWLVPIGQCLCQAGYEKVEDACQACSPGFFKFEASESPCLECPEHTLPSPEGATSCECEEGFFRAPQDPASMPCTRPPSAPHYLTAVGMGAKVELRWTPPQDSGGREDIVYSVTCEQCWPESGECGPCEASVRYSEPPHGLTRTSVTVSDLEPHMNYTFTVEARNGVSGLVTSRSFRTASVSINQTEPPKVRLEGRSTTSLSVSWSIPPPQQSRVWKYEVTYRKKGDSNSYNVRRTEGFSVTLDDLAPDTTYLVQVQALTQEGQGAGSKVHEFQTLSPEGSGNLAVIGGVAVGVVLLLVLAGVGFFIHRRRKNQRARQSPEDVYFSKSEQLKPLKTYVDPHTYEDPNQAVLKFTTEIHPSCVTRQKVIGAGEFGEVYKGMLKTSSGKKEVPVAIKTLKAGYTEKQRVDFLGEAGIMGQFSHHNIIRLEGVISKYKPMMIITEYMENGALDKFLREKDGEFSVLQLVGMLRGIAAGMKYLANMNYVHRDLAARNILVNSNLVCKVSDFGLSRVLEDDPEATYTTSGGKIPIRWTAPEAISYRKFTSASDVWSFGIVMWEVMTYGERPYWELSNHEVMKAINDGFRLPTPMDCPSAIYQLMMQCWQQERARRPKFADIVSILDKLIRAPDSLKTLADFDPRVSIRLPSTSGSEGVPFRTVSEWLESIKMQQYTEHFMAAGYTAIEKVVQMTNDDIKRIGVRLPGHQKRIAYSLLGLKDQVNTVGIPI
CDKL3, sequence (Q8IVW4 whole entry): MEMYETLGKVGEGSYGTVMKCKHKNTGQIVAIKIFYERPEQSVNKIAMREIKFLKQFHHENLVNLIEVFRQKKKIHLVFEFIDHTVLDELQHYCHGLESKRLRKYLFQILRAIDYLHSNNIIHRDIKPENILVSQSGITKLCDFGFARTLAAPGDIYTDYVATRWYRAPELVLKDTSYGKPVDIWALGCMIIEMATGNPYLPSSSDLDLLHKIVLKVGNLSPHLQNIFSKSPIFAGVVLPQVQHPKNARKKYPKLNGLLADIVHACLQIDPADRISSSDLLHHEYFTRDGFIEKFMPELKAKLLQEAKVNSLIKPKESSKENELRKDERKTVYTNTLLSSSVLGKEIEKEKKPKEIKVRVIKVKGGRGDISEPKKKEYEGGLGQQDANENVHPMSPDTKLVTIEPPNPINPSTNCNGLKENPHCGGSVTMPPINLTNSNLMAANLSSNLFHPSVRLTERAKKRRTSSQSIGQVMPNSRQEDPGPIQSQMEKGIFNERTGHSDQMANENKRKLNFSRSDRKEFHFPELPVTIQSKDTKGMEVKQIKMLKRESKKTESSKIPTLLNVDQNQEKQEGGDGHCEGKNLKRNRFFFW
TESK1, sequence (Q15569 whole entry): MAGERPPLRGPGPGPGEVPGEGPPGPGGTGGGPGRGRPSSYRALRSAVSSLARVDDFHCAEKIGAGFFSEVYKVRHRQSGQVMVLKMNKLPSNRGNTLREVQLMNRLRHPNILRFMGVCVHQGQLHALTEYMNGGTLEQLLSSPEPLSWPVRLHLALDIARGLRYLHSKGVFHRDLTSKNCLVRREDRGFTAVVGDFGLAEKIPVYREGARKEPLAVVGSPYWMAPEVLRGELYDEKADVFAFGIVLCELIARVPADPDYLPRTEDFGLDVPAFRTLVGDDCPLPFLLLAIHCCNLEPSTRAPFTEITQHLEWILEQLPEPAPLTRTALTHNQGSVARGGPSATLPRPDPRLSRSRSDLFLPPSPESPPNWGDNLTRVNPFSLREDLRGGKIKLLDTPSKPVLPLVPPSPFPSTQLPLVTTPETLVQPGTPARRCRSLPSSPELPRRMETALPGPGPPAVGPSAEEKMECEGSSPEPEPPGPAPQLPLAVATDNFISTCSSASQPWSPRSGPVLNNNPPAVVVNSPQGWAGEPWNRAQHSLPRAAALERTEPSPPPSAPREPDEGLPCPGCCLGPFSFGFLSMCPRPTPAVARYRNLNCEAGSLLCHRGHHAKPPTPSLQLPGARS
CSNK2A2, sequence (P19784 whole entry): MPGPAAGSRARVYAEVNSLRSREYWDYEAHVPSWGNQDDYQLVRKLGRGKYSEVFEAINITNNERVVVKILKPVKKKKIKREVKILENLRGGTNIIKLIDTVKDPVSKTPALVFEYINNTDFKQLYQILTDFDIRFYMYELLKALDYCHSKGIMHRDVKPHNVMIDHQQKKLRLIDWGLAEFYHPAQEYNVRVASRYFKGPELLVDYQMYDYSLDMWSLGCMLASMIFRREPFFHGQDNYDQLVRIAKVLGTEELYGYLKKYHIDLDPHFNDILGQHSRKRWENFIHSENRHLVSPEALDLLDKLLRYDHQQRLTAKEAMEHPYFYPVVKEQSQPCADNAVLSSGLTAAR
p38-beta, sequence (Q15759 whole entry): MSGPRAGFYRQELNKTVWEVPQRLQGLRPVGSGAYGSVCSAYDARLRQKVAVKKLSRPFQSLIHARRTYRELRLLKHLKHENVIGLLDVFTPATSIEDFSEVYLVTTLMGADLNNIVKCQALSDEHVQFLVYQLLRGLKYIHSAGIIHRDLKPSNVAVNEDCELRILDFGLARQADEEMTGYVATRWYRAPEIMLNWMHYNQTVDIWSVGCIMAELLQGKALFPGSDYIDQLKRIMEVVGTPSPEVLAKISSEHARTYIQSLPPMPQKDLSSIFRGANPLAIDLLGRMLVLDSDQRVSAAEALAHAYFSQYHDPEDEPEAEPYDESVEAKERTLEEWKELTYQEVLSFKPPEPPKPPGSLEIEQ

Row | Compound | remaining binding at 10 µM [1] | remaining binding at 10 µM [2] | remaining binding at 10 µM (CDK4-cyclinD1) | remaining binding at 10 µM (CDK8) | remaining binding at 10 µM (CDKL3) | remaining binding at 10 µM (CSNK2A2) | remaining binding at 10 µM (DAPK1) | remaining binding at 10 µM (DCAMKL2) | remaining binding at 10 µM (EPHA2) | remaining binding at 10 µM (ERBB4) | remaining binding at 10 µM (ERK1) | remaining binding at 10 µM (FGFR1) | remaining binding at 10 µM (FLT3(R834Q)) | remaining binding at 10 µM (IRAK4) | remaining binding at 10 µM (LCK) | remaining binding at 10 µM (MAPKAPK2) | remaining binding at 10 µM (MARK2) | remaining binding at 10 µM (MEK1) | remaining binding at 10 µM (MEK2) | remaining binding at 10 µM (MERTK) | other results
1 | COc1cc(N2CCC(N3CCN(C)CC3)CC2)ccc1Nc1ncc2c(n1)N(C)c1sc(C)nc1C(=O)N2 [Compound 3, 6-((2-methoxy-4-(4-(4-methylpiperazin-1-yl)piperidin-1-yl)phenyl)amino)-2,4-dimethyl-4,9-dihydro-10H-pyrimido[5,4-b]thiazolo[5,4-e][1,4]diazepin-10-one] | 10% | 47% | 100% | 78% | 75% | 87% | 72% | 87% | 91% | 57% | 88% | 75% | 100% | 100% | 45% | 100% | 100% | 100% | 100% | 93% | remaining binding at 10 µM (MST2): 100%; remaining binding at 10 µM (NEK6): 78%; remaining binding at 10 µM (p38-beta): 55%; remaining binding at 10 µM (PAK1): 64%; remaining binding at 10 µM (PIK3CD): 98%; remaining binding at 10 µM (RIOK2): 82%; remaining binding at 10 µM [3]: 99%; remaining binding at 10 µM (SRPK3): 75%; remaining binding at 10 µM (STK36): 61%; remaining binding at 10 µM (TESK1): 81%; remaining binding at 10 µM (TRKC): 100%; remaining binding at 10 µM (WEE1): 88%; remaining binding at 10 µM (YANK3): 68%
2 | COc1cc(N2CCC(N3CCN(C)CC3)CC2)ccc1Nc1ncc2c(n1)N(C)c1sc(C)nc1C(=O)N2C [Compound 5, 6-((2-methoxy-4-(4-(4-methylpiperazin-1-yl)piperidin-1-yl)phenyl)amino)-2,4,9-trimethyl-4,9-dihydro-10H-pyrimido[5,4-b]thiazolo[5,4-e][1,4]diazepin-10-one] | 39% | 100% | 90% | 100% | 100% | 93% | 84% | 3% | 91% | 100% | 92% | 90% | 81% | 88% | 100% | 100% | 100% | 95% | 99% | 100% | remaining binding at 10 µM (MST2): 100%; remaining binding at 10 µM (NEK6): 90%; remaining binding at 10 µM (p38-beta): 95%; remaining binding at 10 µM (PAK1): 92%; remaining binding at 10 µM (PIK3CD): 92%; remaining binding at 10 µM (RIOK2): 100%; remaining binding at 10 µM [3]: 97%; remaining binding at 10 µM (SRPK3): 100%; remaining binding at 10 µM (STK36): 100%; remaining binding at 10 µM (TESK1): 100%; remaining binding at 10 µM (TRKC): 100%; remaining binding at 10 µM (WEE1): 98%; remaining binding at 10 µM (YANK3): 98%
